Data published in ChEMBL document CHEMBL5131375, “Recent Developments in the Use of Kinase Inhibitors for Management of Viral Infections” (J Med Chem, 2022).
pEC50, pIC50: −log10 of the molar value.

Tests used:
Enterovirus A71 [1] = assay: Antiviral activity against enterovirus A71 infected in human RD cells assessed as decrease in viral mRNA level at 2 uM; format: functional; design: scale not given: the % may be the effect or the level left
Enterovirus A71 [2] = assay: Antiviral activity against enterovirus A71 infected in human HeLa cells assessed as decrease in viral mRNA level at 2 uM; format: functional; design: scale not given: the % may be the effect or the level left
Enterovirus A71 [3] = assay: Antiviral activity against enterovirus A71 infected in human RD cells assessed as decrease in viral titer by inhibition of Pim1; format: functional; design: scale not given: the % may be the effect or the level left
Enterovirus A71 [4] = assay: Antiviral activity against enterovirus A71 infected in human HeLa cells assessed as decrease in viral titer by inhibition of Pim1; format: functional; design: scale not given: the % may be the effect or the level left
Enterovirus A71 [5] = assay: Antiviral activity against enterovirus A71 assessed as reduction in viral mRNA level at 2 uM relative to control; format: functional; design: scale not given: the % may be the effect or the level left
in vitro [6] = details: human
in vitro [7] = details: human, hek-293t
Pichinde virus [8] = assay: Antiviral activity against PICV infected in african green monkey Vero cells assessed as reduction in viral titre at 100 uM relative to control; format: functional; design: scale not given: the % may be the effect or the level left
Human alphaherpesvirus 1 [9] = assay: Antiviral activity against HSV-1 infected in african green monkey Vero cells assessed as inhibition of cytopathic effect at 50 uM; format: functional; design: scale not given: the % may be the effect or the level left
Hepatitis B virus [10] = assay: microbe, parasite or virus in culture; format: functional, organism-based; details: Hepatitis B virus
Pichinde virus [11] = assay: Antiviral activity against PICV assessed as reduction of viral growth at 50 uM; format: functional; design: scale not given: the % may be the effect or the level left
Human alphaherpesvirus 1 [12] = assay: Antiviral activity against HSV-1 assessed as reduction of viral growth at 50 uM; format: functional; design: scale not given: the % may be the effect or the level left
[13] = tested on: Human immunodeficiency virus 1; assay: Antiviral activity against HIV-1 assessed as reduction of viral growth at 50 uM; format: functional; design: scale not given: the % may be the effect or the level left
in vitro [14] = details: chlorocebus sabaeus, Vero cells
Influenza A virus [15] = assay: microbe, parasite or virus in culture; format: functional, organism-based
Influenza A virus [16] = assay: microbe, parasite or virus in culture; format: functional, organism-based; remark: listed apart in the source
[17] = Toxicity in mouse infected with Influenza A virus assessed as lethality at 75 mg/kg, po; format: organism-based; details: in vivo
in vitro [18] = details: human, bxpc-3
Human alphaherpesvirus 1 [19] = assay: microbe, parasite or virus in culture; format: functional, organism-based
[20] = target: Cyclin-dependent kinase 9 (Homo sapiens, UniProt P50750); assay: Inhibition of CDK9 (unknown origin) incubated for 2 hrs by measuring remaining ATP
Human alphaherpesvirus 1 [21] = assay: Antiviral activity against ACV-resistant HSV-1 in African green monkey Vero cells measured after 2 days; format: functional, organism-based; details: Human alphaherpesvirus 1, Vero, 48 h
Hepatitis B virus [22] = assay: Antiviral activity against HBV infected in human HepG2-hNTCP cells; format: functional, organism-based
[23] = Cytotoxicity against human HepG2 cells; format: toxicity, cell-based
Human alphaherpesvirus 1 [24] = assay: In vivo antiviral activity against HSV-1 infected in organism (unknown origin) assessed as suppression of skin lesions at 10% ointment treatment; format: functional
Zika virus [25] = assay: Antiviral activity against ZIKV-PRVABC59 infected in human Huh-7 cells measured after 24 hrs; format: functional, organism-based; details: PRVABC59, Huh-7, 24 h
Zika virus [26] = assay: Antiviral activity against ZIKV-PRVABC59 infected in Neuronal cell line measured after 24 hrs; format: functional, organism-based
Lassa virus = assay: microbe, parasite or virus in culture; format: functional, organism-based; details: Mammarenavirus lassaense, A549
Nipah virus [27] = assay: microbe, parasite or virus in culture; format: functional, organism-based, HEK293T; details: Henipavirus nipahense, HEK-293T
Ebolavirus [28] = assay: microbe, parasite or virus in culture; format: functional, organism-based; details: Orthoebolavirus, Huh-7
Marburgvirus [29] = assay: microbe, parasite or virus in culture; format: functional, organism-based; details: Orthomarburgvirus, Huh-7
Ebolavirus [30] = assay: microbe, parasite or virus in culture; format: functional, organism-based; details: Orthoebolavirus
Marburgvirus [31] = assay: microbe, parasite or virus in culture; format: functional, organism-based; details: Orthomarburgvirus
Nipah virus [32] = assay: microbe, parasite or virus in culture; format: functional, organism-based; details: Henipavirus nipahense
in vitro [33] = details: human; remark: listed apart in the source
Zika virus [34] = assay: microbe, parasite or virus in culture
dengue virus type 2 [35] = assay: microbe, parasite or virus in culture; format: functional, organism-based
Dengue virus = assay: microbe, parasite or virus in culture; details: Huh-7
[36] = tested on: Middle East respiratory syndrome-related coronavirus; assay: microbe, parasite or virus in culture
Human coronavirus 229E [37] = assay: microbe, parasite or virus in culture
[38] = tested on: Feline infectious peritonitis virus; assay: microbe, parasite or virus in culture; details: Alphacoronavirus 1
[39] = tested on: Middle East respiratory syndrome-related coronavirus; assay: microbe, parasite or virus in culture; remark: listed apart in the source
Human coronavirus 229E [40] = assay: microbe, parasite or virus in culture; remark: listed apart in the source
Human coronavirus 229E [41] = assay: Antiviral activity against HCoV-229E assessed as reduction of viral RNA level at 4 uM relative control; format: functional; design: scale not given: the % may be the effect or the level left
in vitro [42] = details: human, l132
[43] = tested on: Middle East respiratory syndrome-related coronavirus; assay: microbe, parasite or virus in culture; format: functional
[44] = target: Serine/threonine-protein kinase mTOR (Homo sapiens, UniProt P42345)
[45] = Cytotoxicity against human HaCaT cells; format: toxicity, cell-based
[46] = tested on: Human immunodeficiency virus; assay: microbe, parasite or virus in culture; format: functional, organism-based; details: Human immunodeficiency virus 1
in vitro [47] = details: human, jurkat 6c6-du cell
dengue virus type 2 [48] = assay: Antiviral activity against DENV2 infected in hamster BHK-21 cells; format: functional
[49] = Cytotoxicity against microglia (unknown origin) cells; format: toxicity, cell-based
[50] = tested on: Human immunodeficiency virus 1; assay: microbe, parasite or virus in culture; format: functional, organism-based
[51] = tested on: Human immunodeficiency virus 2; assay: microbe, parasite or virus in culture; format: functional, organism-based
in vitro [52] = details: human, PBMC
Aurora kinase B = Aurora kinase B (Homo sapiens, UniProt Q96GD4); assay: Inhibition of aurora B kinase (unknown origin)
[53] = Cytotoxicity against human JEG-3 cells; format: toxicity, cell-based

Cyclin-dependent kinase 9, sequence (P50750 whole entry): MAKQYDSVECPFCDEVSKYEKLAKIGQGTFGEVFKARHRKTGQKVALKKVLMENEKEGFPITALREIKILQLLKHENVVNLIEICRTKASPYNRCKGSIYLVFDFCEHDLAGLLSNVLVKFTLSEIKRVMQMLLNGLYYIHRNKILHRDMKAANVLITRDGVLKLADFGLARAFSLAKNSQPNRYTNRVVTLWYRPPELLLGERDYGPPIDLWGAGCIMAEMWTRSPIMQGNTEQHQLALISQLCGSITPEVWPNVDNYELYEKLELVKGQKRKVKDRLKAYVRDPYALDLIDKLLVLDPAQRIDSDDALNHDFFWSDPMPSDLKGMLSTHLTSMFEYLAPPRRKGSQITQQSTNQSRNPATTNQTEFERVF
Aurora kinase B, sequence (Q96GD4 whole entry): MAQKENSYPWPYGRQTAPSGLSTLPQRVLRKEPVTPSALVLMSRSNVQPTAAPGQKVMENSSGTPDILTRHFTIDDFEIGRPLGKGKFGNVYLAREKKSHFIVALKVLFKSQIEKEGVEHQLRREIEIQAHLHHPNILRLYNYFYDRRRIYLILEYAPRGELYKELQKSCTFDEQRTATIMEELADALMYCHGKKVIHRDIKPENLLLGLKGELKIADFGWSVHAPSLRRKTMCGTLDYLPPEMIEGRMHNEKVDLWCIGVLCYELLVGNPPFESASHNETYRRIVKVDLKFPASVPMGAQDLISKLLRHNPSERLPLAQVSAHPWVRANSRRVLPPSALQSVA

## CN1CCCN(C(=O)c2cccc(-c3ccc(/C=C4/C(=O)Nc5ccc(Cl)cc54)o3)c2)CC1
Enterovirus A71 [1]
  Activity: 70%
Enterovirus A71 [2]
  Activity: 70%
Enterovirus A71 [3]
  Activity: 50%
Enterovirus A71 [4]
  Activity: 50%
Enterovirus A71 [5]
  Activity: 70%
In vitro [6]; hela
  CC50: > 8 µM
In vitro [7]
  CC50: > 8 µM

## O=c1c(-c2ccc(O)cc2)coc2cc(O)cc(O)c12 [GENISTEIN]
Pichinde virus [8]
  Activity: 90%
Human alphaherpesvirus 1 [9]
  Activity: 11%
Hepatitis B virus [10]
  pEC50: 4.48
Pichinde virus [11]
  Activity: >50%
Human alphaherpesvirus 1 [12]
  Activity: >50%
[13]
  Activity: >50%
In vitro [14]
  CC50: > 50 µM

## O=C(NCc1ccncc1)C12CC3CC(C1)CC(c1ccc(Cl)cc1)(C3)C2 [ABC-294640]
Influenza A virus [15]
  pEC50: 5.75
Influenza A virus [16]
  pEC50: 5.75
[17]
  Activity: Non-Toxic
In vitro [18]
  CC50: 28.5 µM

## Fc1ccc(N2CCCCC2)c(NC(=S)c2ccncc2)c1
Human alphaherpesvirus 1 [19]
  pEC50: 6.16
[20]
  pIC50: 5.24
Human alphaherpesvirus 1 [21]
  pIC50: 6.16
Hepatitis B virus [22]
  pIC50: 6.48
Hepatitis B virus [10]
  pEC50: 6.48
[23]
  CC50: > 50 µM
Human alphaherpesvirus 1 [24]
  Activity: 100%
In vitro [6]; HeLa cells
  CC50: > 10 µM

## NCC(=O)Nc1ccc(-n2nc(C(F)(F)F)cc2-c2ccc3c(ccc4ccccc43)c2)cc1 [AR-12]
Zika virus [25]
  pIC50: 5.70
Zika virus [26]
  pIC50: 5.70
Lassa virus
  pEC50: 6.30
Nipah virus [27]
  pEC50: 6.52
Ebolavirus [28]
  pEC50: 6.52
Marburgvirus [29]
  pEC50: 6.52
Ebolavirus [30]
  pEC50: 6.52
Marburgvirus [31]
  pEC50: 6.52
Nipah virus [32]
  pEC50: 6.52
In vitro [33]; Huh-7 cells
  CC50: > 10 µM
Zika virus [34]
  pIC50: > 5.70

## CN1CCN(CCOc2cc(OC3CCOCC3)c3c(Nc4c(Cl)ccc5c4OCO5)ncnc3c2)CC1 [SARACATINIB]
Dengue virus type 2 [35]
  pEC50: 4.91
In vitro [33]; huh-7
  CC50: 74 µM
Dengue virus
  pEC50: 4.91
[36]
  pEC50: 5.54
Human coronavirus 229E [37]
  pEC50: 5.62
[38]
  pEC50: 5.15
[39]
  pEC50: 5.54
Human coronavirus 229E [40]
  pEC50: 5.62

## C[S+]([O-])c1ccc(-c2nc(-c3ccc(F)cc3)c(-c3ccncc3)[nH]2)cc1 (centres undefined) [SB-203580]
Human coronavirus 229E [41]
  Activity: 60%
In vitro [42]
  CC50: > 10 µM

## CO[C@H]1C[C@@H]2CC[C@@H](C)[C@@](O)(O2)C(=O)C(=O)N2CCCC[C@H]2C(=O)O[C@H]([C@H](C)C[C@@H]2CC[C@@H](OCCO)[C@H](OC)C2)CC(=O)[C@H](C)/C=C(\C)[C@@H](O)[C@@H](OC)C(=O)[C@H](C)C[C@H](C)/C=C/C=C/C=C/1C [EVEROLIMUS]
[43]
  inhibition at 10 µM: 56%
[44]
  pIC50: 8.80
[45]
  CC50: 28.3 µM
In vitro [6]; HeLa cells
  CC50: 28.3 µM
In vitro [33]; Huh-7 cells
  CC50: > 10 µM

## O=C(Nc1nc2cccc(-c3ccc(CN4CCS(=O)(=O)CC4)cc3)n2n1)C1CC1 [FILGOTINIB]
[46]
  pEC50: 5.51
In vitro [47]
  CC50: > 10 µM

## NC(=O)c1cccc(-c2cc(Nc3ccc(OC(F)(F)F)cc3)ncn2)c1
Dengue virus type 2 [48]
  IC90: 15 µM
Dengue virus type 2 [35]
  pIC50: 4.82
[49]
  CC50: 20 µM

## N#CC[C@H](C1CCCC1)n1cc(-c2ncnc3[nH]ccc23)cn1 [RUXOLITINIB]
[50]
  pEC50: 6.52
[51]
  pEC50: 6.70
In vitro [52]
  CC50: > 100 µM

## c1cncc(CN2CCC(n3ncc4c(N5CCOCC5)nc(-c5ccc6[nH]ccc6c5)nc43)CC2)c1
Aurora kinase B
  pIC50: 6.60
[53]
  CC50: > 10 µM
Zika virus [34]
  pEC50: 5.64
  pIC50: 5.64
